The IC50 is the concentration at which inhibition is half-maximal. Higher therefore signals lower potency.

This note sets out measurements from US11919908B2, “Substituted pyrrolo[2,3-d]pyrimidine compounds as JAK2 V617F inhibitors” (Incyte Corporation, priority 2020, dated 2024).

Test [1] concerns the target T1, pseudo-kinase domain (JH2) of human V617F mutant JAK2 (Homo sapiens, UniProt O60674, F794H/V617F/W659A/W777A).
T1 construct: pseudo-kinase domain (JH2, amino-acids 536-812 with 3 surface mutations W659A, W777A, F794H); His (C); purchased BPS Bioscience 79498; host or cells: baculovirus expression system
The test can be described thus: JAK2 LanthaScreen JH2-V617F Binding Assay. As to conditions: 50 nM Fluorescent JAK2-JH2 Tracer, 1 hour at 25° C. The protocol: (§1) Example C. JAK2 LanthaScreen JH2-V617F Binding Assay JAK2 JH2-V617F binding assay utilizes pseudo-kinase domain (JH2, amino-acids 536-812 with 3 surface mutations […]) of human V617F mutant JAK2 expressed as C-terminal His-Avi-tagged, biotinylated protein in a baculovirus expression system (BPS Bioscience, Catalog #79498). The assay was conducted in black 384-well polystyrene plates in a final reaction volume of 20 μL. JAK2 JH2-V617F (0.26 nM) was incubated with compounds (100 nL serially diluted in DMSO) in the presence of 50 nM Fluorescent JAK2-JH2 Tracer (MedChem Express Catalog #HY-102055) and 0.25 nM Streptavidin-Tb cryptate (Cisbio Part #610SATLB) in assay buffer (50 mM Tris, pH=7.5, 10 mM MgCl2, 0.01% Brij-35, 0.1% BSA, 1 mM EGTA, 5% Glycerol and 5 mM DTT). Non-specific binding was accessed in the presence of 2 mM ATP. After incubation for 1 hour at 25° C., LanthaScreen signals were read on a PHERAstar FS plate reader (BMG LABTECH). Data was analyzed with IDBS XLfit and GraphPad Prism 5.0 software using a four parameter dose response curve to determine IC50 for each compound.
(In general: In TR-FRET formats the signal depends on donor and acceptor labels being close together.)

The target in test [2] is T2, catalytic domain (JH1) of human JAK2 (Homo sapiens, UniProt O60674).
T2 construct: catalytic domain (JH1, amino acids 826-1132) of human JAK2; FLAG (N); purchased Carna Biosciences 08-445-20N; host or cells: baculovirus expression system
T2 sequence (O60674 826-1132): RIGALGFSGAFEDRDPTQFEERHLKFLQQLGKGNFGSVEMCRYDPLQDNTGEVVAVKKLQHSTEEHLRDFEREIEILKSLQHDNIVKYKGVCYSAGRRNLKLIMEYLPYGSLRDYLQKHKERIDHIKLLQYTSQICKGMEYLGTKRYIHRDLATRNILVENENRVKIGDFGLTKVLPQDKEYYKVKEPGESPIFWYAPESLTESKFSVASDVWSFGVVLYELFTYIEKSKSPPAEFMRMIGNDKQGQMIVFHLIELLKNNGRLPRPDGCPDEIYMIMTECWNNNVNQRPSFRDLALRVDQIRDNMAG
The test can be described thus: JAK2 LanthaScreen JH1 Binding Assay. As to conditions: 50 nM Fluorescent JAK2-JH1 Tracer, 2 hours at 25° C. On the procedure:
Example A. JAK2 LanthaScreen […] Binding Assay JAK2 JH1 binding assay utilizes catalytic domain (JH1, amino acids 826-1132) of human JAK2 expressed as N-terminal FLAG-tagged, biotinylated protein in a baculovirus expression system (Carna Biosciences, Product #08-445-20N). The assay was conducted in black 384-well polystyrene plates in a final reaction volume of 20 μL. JAK2 JH1 (1.5 nM) was incubated with compounds (100 nL serially diluted in DMSO) in the presence of 50 nM Fluorescent JAK2-JH1 Tracer and 0.5 nM Streptavidin-Tb cryptate (Cisbio Part #610SATLB) in assay buffer (50 mM Tris, pH=7.5, 10 mM MgCl2, 0.01% Brij-35, 0.1% BSA, 1 mM EGTA, 5% Glycerol and 5 mM DTT). Non-specific binding was accessed in the presence of 2 mM ATP. After incubation for 2 hours at 25° C., LanthaScreen signals were read on a PHERAstar FS plate reader (BMG LABTECH). Data was analyzed with IDBS XLfit and GraphPad Prism 5.0 software using a four parameter dose response curve to determine IC50 for each compound.

The target in test [3] is T3, pseudo-kinase domain (JH2) of human Wild Type JAK2 (Homo sapiens, UniProt O60674, F794H/W659A/W777A).
T3 construct: pseudo-kinase domain (JH2, amino-acids 536-812 with 3 surface mutations W659A, W777A, F794H); His (C); purchased BPS Bioscience 79463; host or cells: baculovirus expression system
T3 sequence (O60674 536-812 W659A/W777A/F794H): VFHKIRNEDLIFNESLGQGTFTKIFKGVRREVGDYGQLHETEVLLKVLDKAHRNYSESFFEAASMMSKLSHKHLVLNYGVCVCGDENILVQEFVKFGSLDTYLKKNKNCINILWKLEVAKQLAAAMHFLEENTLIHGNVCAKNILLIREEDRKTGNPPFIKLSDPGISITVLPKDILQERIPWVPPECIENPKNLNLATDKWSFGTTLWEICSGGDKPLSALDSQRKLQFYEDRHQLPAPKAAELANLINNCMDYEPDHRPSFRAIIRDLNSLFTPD
Description: JAK2 LanthaScreen JH2-WT Binding Assay. The settings on record: 50 nM Fluorescent JAK2-JH2 Tracer, 1 hour at 25° C. The protocol:
as §1, with “Example B.” for “Example C.”, “LanthaScreen JH2-WT” for “LanthaScreen JH2-V617F”, “JAK2 JH2-WT” for “JAK2 JH2-V617F”, “human Wild Type” for “human V617F mutant”, “Catalog #79463).” for “Catalog #79498).”, “JAK2 JH2-WT (0.145” for “JAK2 JH2-V617F (0.26”

T1 sequence (O60674 536-812 V617F/W659A/W777A/F794H): as the sequence (O60674 536-812 W659A/W777A/F794H) above, with V82F counted along it

With `Cc1cccc(-c2c(-c3cccc(C(=O)N(C)C)c3)[nH]c3nc(N)[nH]c(=O)c23)c1` [Example 61, 3-(2-Amino-4-oxo-5-(3-tolyl)-4,7-dihydro-3H-pyrrolo [2,3-d]pyrimidin-6-yl)-N,N-dimethyl-benzamide], the IC50 is 1 to 2.5 µM in test [1], greater than 2.5 µM in test [2] and 1 to 2.5 µM in test [3].
As to `CN(C)S(=O)(=O)c1ccc(-c2[nH]c3nc(N)[nH]c(=O)c3c2-c2cccc3c2cnn3C)cc1` [Example 16, 4-(2-Amino-5-(1-methyl-1H-indazol-4-yl)-4-oxo-4,7-dihydro-3H-pyrrolo[2,3-d]pyrimidin-6-yl)-N,N-dimethylbenzene sulfonamide], the IC50 in test [1], in test [2] and in test [3] was greater than 2.5 µM each time.
For `COc1nn(Cc2ccc(C(=O)O)cc2)cc1-c1c(-c2ccc(S(=O)(=O)N(C)C)cc2)[nH]c2nc(N)[nH]c(=O)c12` [Example 50], the values for the IC50 in test [1], in test [2] and in test [3] were no more than 0.1 µM, greater than 2.5 µM and no more than 0.1 µM, respectively.
For the molecule `CN(C)S(=O)(=O)c1ccc(-c2[nH]c3nc(N)[nH]c(=O)c3c2-c2ccccc2)cc1` [Example 38, 4-(2-Amino-4-oxo-5-phenyl-4,7-dihydro-3H-pyrrolo[2,3-d]pyrimidin-6-yl)-N,N-dimethylbenzene sulfonamide], the figures for the IC50 in test [1], in test [2] and in test [3] were 0.1 to 0.5 µM, 0.5 to 1 µM and 0.1 to 0.5 µM, respectively.
Regarding `CN(C)S(=O)(=O)c1ccc(-c2[nH]c3nc(N)[nH]c(=O)c3c2-c2cccc3cn[nH]c23)cc1` [Example 20, 4-(2-Amino-5-(1H-indazol-7-yl)-4-oxo-4,7-dihydro-3H-pyrrolo[2,3-d]pyrimidin-6-yl)-N,N-dimethylbenzene sulfonamide], the concentration for half-maximal inhibition (IC50) in test [1], in test [2] and in test [3] was greater than 2.5 µM each time.
As to `CN(C)S(=O)(=O)c1ccc(-c2[nH]c3nc(N)[nH]c(=O)c3c2-c2cnn(C3CCS(=O)(=O)C3)c2)cc1` (stereo not drawn) [Example 36, 4-(2-Amino-5-(1-(1,1-dioxidotetrahydrothiophen-3-yl)-1H-pyrazol-4-yl)-4-oxo-4,7-dihydro-3H-pyrrolo[2,3-d]pyrimidin-6-yl)-N,N-dimethylbenzene sulfonamide], the IC50 in test [1], in test [2] and in test [3] was 1 to 2.5 µM throughout.
For the molecule `CN(C)S(=O)(=O)c1ccc(-c2[nH]c3nc(N)[nH]c(=O)c3c2-c2ccc(C(=O)O)cc2)cc1` [Example 35, 4-(2-amino-6-(4-(N,N-dimethylsulfamoyl)phenyl)-4-oxo-4,7-dihydro-3H-pyrrolo[2,3-d]pyrimidin-5-yl)benzoic acid], the IC50 in test [1] fell in the range of 0.1 to 0.5 µM; in test [2] it was 0.5 to 1 µM; in test [3], 0.1 to 0.5 µM.
As for `Cc1ccc(F)c(-c2c(-c3ccc(S(=O)(=O)N(C)C)cc3)[nH]c3nc(N)[nH]c(=O)c23)c1` [Example 69, 4-(2-Amino-5-(2-fluoro-5-methylphenyl)-4-oxo-4,7-dihydro-3H-pyrrolo[2,3-d]pyrimidin-6-yl)-N,N-dimethylbenzenesulfonamide], the values for the IC50 in test [1], in test [2] and in test [3] were 0.1 to 0.5 µM, 1 to 2.5 µM and 0.1 to 0.5 µM, respectively.
Regarding “4-(2-Amino-5- (2,3-difluorobenzofuran-6- yl)-4-oxo-4,7-dihydro-3H- pyrrolo[2,3-d]pyrimidin-6- yl)-N,N-dimethylbenzene sulfonamide [Example 26]”, the half-maximal inhibitory concentration (IC50) in test [1] was in the range of 0.5 to 1 µM; in test [2] it was 1 to 2.5 µM; in test [3], 0.5 to 1 µM.
Regarding `CN1CCC(c2ccc(-c3c(-c4ccc(S(=O)(=O)N(C)C)cc4)[nH]c4nc(N)[nH]c(=O)c34)cc2)CC1` [Example 8, 4-(2-Amino-5-(4-(1-methylpiperidin-4-yl)phenyl)-4-oxo-4,7-dihydro-3H-pyrrolo[2,3-d]pyrimidin-6-yl)-N,N-dimethylbenzene sulfonamide], the IC50 in test [1] is 1 to 2.5 µM; in test [2], greater than 2.5 µM; in test [3], 1 to 2.5 µM.
`COc1ccc(Cl)cc1-c1c(-c2ccc(S(=O)(=O)N(C)C)cc2)[nH]c2nc(N)[nH]c(=O)c12` [Example 27, 4-(2-Amino-5-(5-chloro-2-methoxyphenyl)-4-oxo-4,7-dihydro-3H-pyrrolo[2,3-d]pyrimidin-6-yl)-N,N-dimethylbenzene sulfonamide]: the 50% inhibitory concentration (IC50) was greater than 2.5 µM in test [1], greater than 2.5 µM in test [2] and 1 to 2.5 µM in test [3].
As for `Nc1nc2[nH]c(-c3ccccc3)c(-c3cccc(F)c3)c2c(=O)[nH]1` [Example 58, 2-Amino-5-(3-fluorophenyl)-6-phenyl-3,7-dihydro-4H-pyrrolo[2,3-d] pyrimidin-4-one], the IC50 was 1 to 2.5 µM in test [1], greater than 2.5 µM in test [2] and 1 to 2.5 µM in test [3].
In the case of `COc1cccc(F)c1-c1c(-c2ccc(S(=O)(=O)N(C)C)cc2)[nH]c2nc(N)[nH]c(=O)c12` [Example 68, 4-(2-Amino-5-(2-fluoro-6-methoxyphenyl)-4-oxo-4,7-dihydro-3H-pyrrolo[2,3-d]pyrimidin-6-yl)-N,N-dimethylbenzenesulfonamide], the IC50 in test [1] is 0.5 to 1 µM; in test [2] it was greater than 2.5 µM; in test [3], 0.5 to 1 µM.
For `COc1ccccc1-c1c(-c2ccccc2)[nH]c2nc(N)[nH]c(=O)c12` [Example 57, 2-Amino-5-(2-methoxyphenyl)-6-phenyl-3,7-dihydro-4H-pyrrolo [2,3-d]pyrimidin-4-one], the 50% inhibitory concentration (IC50) in test [1] was 1 to 2.5 µM; in test [2], greater than 2.5 µM; in test [3], 1 to 2.5 µM.
Take `CN(C)S(=O)(=O)c1ccc(-c2[nH]c3nc(N)[nH]c(=O)c3c2-c2cccc3c2OC(C)(C)C3)cc1` [Example 71, 4-(2-Amino-5-(2,2-dimethyl-2,3-dihydrobenzofuran-7-yl)-4-oxo-4,7-dihydro-3H-pyrrolo[2,3-d]pyrimidin-6-yl)-N,N-dimethylbenzenesulfonamide]: the IC50 in test [1], in test [2] and in test [3] was greater than 2.5 µM each time.
In the case of `CN(C)S(=O)(=O)c1ccc(-c2[nH]c3nc(N)[nH]c(=O)c3c2-c2cnn(Cc3cccnc3)c2)cc1` [Example 29, 4-(2-Amino-4-oxo-5-(1-(pyridin-3-ylmethyl)-1H-pyrazol-4-yl)-4,7-dihydro-3H-pyrrolo[2,3-d]pyrimidin-6-yl)-N,N-dimethylbenzene sulfonamide], the 50% inhibitory concentration (IC50) in test [1], in test [2] and in test [3] was greater than 2.5 µM throughout.
For `Cc1cccc(-c2c(-c3ccc(S(=O)(=O)N(C)C)cc3)[nH]c3nc(N)[nH]c(=O)c23)c1F` [Example 67, 4-(2-Amino-5-(2-fluoro-3-methylphenyl)-4-oxo-4,7-dihydro-3H-pyrrolo[2,3-d]pyrimidin-6-yl)-N,N-dimethylbenzenesulfonamide], the IC50 in test [1], in test [2] and in test [3] was 0.1 to 0.5 µM throughout.
